Assay results taken from patent US11117900B2 (Vertex Pharmaceuticals Incorporated, priority 2012, dated 2021).

tested on: HCT116 colorectal cancer cells; experiment: Cisplatin sensitization assay (96 h MTS cell viability); type: cell-based; conditions: Cisplatin sensitization value;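 also: compound concentration needed to lower the IC50 of Cisplatin alone by a set fold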
Outline: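 HCT116 cells were dosed simultaneously with compound and cisplatin as a full matrix of 2-fold serial dilutions from 10 μM top final concentration. Incubation was 96 h at 37° C., 5% CO2, followed by 1 h with MTS reagent for the viability read-out. Sensitization values were binned into +++, ++ and + categories.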

Row | SMILES | Cisplatin Sensitization Assay
1 | CCC(C#N)c1cnc2c(C(=O)Nc3cnccc3OC)c(N)nn2c1 (stereo not drawn) [I-O-20, 2-amino-6-(1-cyanopropyl)-N-(4-methoxypyridin-3-yl)pyrazolo[1,5-a]pyrimidine-3-carboxamide] | ++ (Compounds with a Cisplatin sensitization value >0.02 μM but <0.2 μM are marked with “++.”)
2 | Nc1nn2cc(F)cnc2c1C(=O)Nc1cncc(F)c1C1CCN(C2COC2)CC1 [I-C-13, 2-amino-6-fluoro-N-(5-fluoro-4-(1-(oxetan-3-yl)piperidin-4-yl)pyridin-3-yl)pyrazolo[1,5-a]pyrimidine-3-carboxamide] | ++ (Compounds with a Cisplatin sensitization value >0.02 μM but <0.2 μM are marked with “++.”)
3 | Nc1nn2cc(F)cnc2c1C(=O)Nc1cnccc1N1CCC2(CC1)COC2 [I-N-226, N-(4-(2-oxa-7-azaspiro[3.5]nonan-7-yl)pyridin-3-yl)-2-amino-6-fluoropyrazolo[1,5-a]pyrimidine-3-carboxamide] | +++ (Compounds with a Cisplatin sensitization value of <0.02 μM are marked with “+++.”)
4 | Nc1nn2cc(F)cnc2c1C(=O)Nc1cnccc1N1CCN2CCOC[C@H]2C1 [I-N-116, (R)-2-amino-6-fluoro-N-(4-(hexahydropyrazino[2,1-c][1,4]oxazin-8(1H)-yl)pyridin-3-yl)pyrazolo[1,5-a]pyrimidine-3-carboxamide] | ++ (Compounds with a Cisplatin sensitization value >0.02 μM but <0.2 μM are marked with “++.”)
5 | CN1CCN(c2c(F)cncc2NC(=O)c2c(N)nn3cc(Cl)cnc23)CC1 [I-N-14, 2-amino-6-chloro-N-(5-fluoro-4-(4-methylpiperazin-1-yl)pyridin-3-yl)pyrazolo[1,5-a]pyrimidine-3-carboxamide] | +++ (Compounds with a Cisplatin sensitization value of <0.02 μM are marked with “+++.”)
6 | CN1CCN(c2ccncc2NC(=O)c2c(N)nn3cc(Cl)cnc23)CC1CO (stereo not drawn) [I-N-63, 2-amino-6-chloro-N-(4-(3-(hydroxymethyl)-4-methylpiperazin-1-yl)pyridin-3-yl)pyrazolo[1,5-a]pyrimidine-3-carboxamide] | ++ (Compounds with a Cisplatin sensitization value >0.02 μM but <0.2 μM are marked with “++.”)
7 | Nc1nn2cc(F)cnc2c1C(=O)Nc1cncc(F)c1N1CCN2C(=O)CCC2C1 (stereo not drawn) [I-N-163, 2-amino-6-fluoro-N-(5-fluoro-4-(6-oxohexahydropyrrolo[1,2-a]pyrazin-2(1H)-yl)pyridin-3-yl)pyrazolo[1,5-a]pyrimidine-3-carboxamide] | +++ (Compounds with a Cisplatin sensitization value of <0.02 μM are marked with “+++.”)
8 | CNC(=O)C1CCN(c2c(F)cncc2NC(=O)c2c(N)nn3cc(F)cnc23)CC1 [I-G-33, 2-amino-6-fluoro-N-(5-fluoro-4-(4-(methylcarbamoyl)piperidin-1-yl)pyridin-3-yl)pyrazolo[1,5-a]pyrimidine-3-carboxamide] | +++ (Compounds with a Cisplatin sensitization value of <0.02 μM are marked with “+++.”)
9 | COCCN(C)C(=O)C1CCN(c2c(F)cncc2NC(=O)c2c(N)nn3cc(F)cnc23)CC1 [I-G-40, 2-amino-6-fluoro-N-(5-fluoro-4-(4-((2-methoxyethyl)(methyl)carbamoyl)piperidin-1-yl)pyridin-3-yl)pyrazolo[1,5-a]pyrimidine-3-carboxamide] | +++ (Compounds with a Cisplatin sensitization value of <0.02 μM are marked with “+++.”)
10 | CS(=O)(=O)C1CCN(c2c(F)cncc2NC(=O)c2c(N)nn3cc(F)cnc23)CC1 [I-N-165, 2-amino-6-fluoro-N-(5-fluoro-4-(4-(methylsulfonyl)piperidin-1-yl)pyridin-3-yl)pyrazolo[1,5-a]pyrimidine-3-carboxamide] | +++ (Compounds with a Cisplatin sensitization value of <0.02 μM are marked with “+++.”)
11 | Nc1nn2cc(F)cnc2c1C(=O)Nc1cnccc1N1CCCCC1 [I-N-152, 2-amino-6-fluoro-N-(4-(piperidin-1-yl)pyridin-3-yl)pyrazolo[1,5-a]pyrimidine-3-carboxamide] | +++ (Compounds with a Cisplatin sensitization value of <0.02 μM are marked with “+++.”)
12 | Nc1nn2cc(Cl)cnc2c1C(=O)Nc1cnccc1N1CCN(CC(F)(F)F)CC1 [I-N-67, 2-amino-6-chloro-N-(4-(4-(2,2,2-trifluoroethyl)piperazin-1-yl)pyridin-3-yl)pyrazolo[1,5-a]pyrimidine-3-carboxamide] | +++ (Compounds with a Cisplatin sensitization value of <0.02 μM are marked with “+++.”)
13 | CC(=O)N1CC2(CCN(c3ccncc3NC(=O)c3c(N)nn4cc(F)cnc34)CC2)C1 [I-N-251, N-(4-(2-acetyl-2,7-diazaspiro[3.5]nonan-7-yl)pyridin-3-yl)-2-amino-6-fluoropyrazolo[1,5-a]pyrimidine-3-carboxamide] | +++ (Compounds with a Cisplatin sensitization value of <0.02 μM are marked with “+++.”)
14 | CN1CCN(CC2CCN(c3c(F)cncc3NC(=O)c3c(N)nn4cc(F)cnc34)CC2)CC1 [I-N-150, 2-amino-6-fluoro-N-(5-fluoro-4-(4-((4-methylpiperazin-1-yl)methyl)piperidin-1-yl)pyridin-3-yl)pyrazolo[1,5-a]pyrimidine-3-carboxamide] | +++ (Compounds with a Cisplatin sensitization value of <0.02 μM are marked with “+++.”)
15 | Nc1nn2cc(F)cnc2c1C(=O)Nc1cnccc1N1CCS(=O)(=O)CC1 [I-N-210, 2-amino-N-(4-(1,1-dioxidothiomorpholino)pyridin-3-yl)-6-fluoropyrazolo[1,5-a]pyrimidine-3-carboxamide] | +++ (Compounds with a Cisplatin sensitization value of <0.02 μM are marked with “+++.”)
16 | COc1cncc(NC(=O)c2c(N)nn3cc(F)cnc23)c1C1CC1 [I-C-84, 2-amino-N-(4-cyclopropyl-5-methoxypyridin-3-yl)-6-fluoropyrazolo[1,5-a]pyrimidine-3-carboxamide] | ++ (Compounds with a Cisplatin sensitization value >0.02 μM but <0.2 μM are marked with “++.”)
17 | CN1CC(NC(=O)C2CCN(c3c(F)cncc3NC(=O)c3c(N)nn4cc(F)cnc34)CC2)C1 [I-G-23, 2-amino-6-fluoro-N-(5-fluoro-4-(4-((1-methylazetidin-3-yl)carbamoyl)piperidin-1-yl)pyridin-3-yl)pyrazolo[1,5-a]pyrimidine-3-carboxamide] | +++ (Compounds with a Cisplatin sensitization value of <0.02 μM are marked with “+++.”)
18 | CC(C)(C)N1CCN(c2ccncc2NC(=O)c2c(N)nn3cc(Cl)cnc23)CC1 [I-N-34, 2-amino-N-(4-(4-(tert-butyl)piperazin-1-yl)pyridin-3-yl)-6-chloropyrazolo[1,5-a]pyrimidine-3-carboxamide] | ++ (Compounds with a Cisplatin sensitization value >0.02 μM but <0.2 μM are marked with “++.”)
19 | Nc1nn2cc(Cl)cnc2c1C(=O)Nc1cnccc1N1CCC(N2CCCC2)CC1 [I-N-105, 2-amino-6-chloro-N-(4-(4-(pyrrolidin-1-yl)piperidin-1-yl)pyridin-3-yl)pyrazolo[1,5-a]pyrimidine-3-carboxamide] | +++ (Compounds with a Cisplatin sensitization value of <0.02 μM are marked with “+++.”)
20 | CN1CC[C@@H](OC2CCN(c3ccncc3NC(=O)c3c(N)nn4cc(F)cnc34)CC2)C1 [I-N-131] | +++ (Compounds with a Cisplatin sensitization value of <0.02 μM are marked with “+++.”)
21 | CS(=O)(=O)C1CCN(c2c(Cl)cncc2NC(=O)c2c(N)nn3cc(F)cnc23)C1 (stereo not drawn) [I-N-287, 2-amino-N-(5-chloro-4-(3-(methylsulfonyl)pyrrolidin-1-yl)pyridin-3-yl)-6-fluoropyrazolo[1,5-a]pyrimidine-3-carboxamide] | +++ (Compounds with a Cisplatin sensitization value of <0.02 μM are marked with “+++.”)
22 | CN(C)S(=O)(=O)C1CCN(c2c(F)cncc2NC(=O)c2c(N)nn3cc(F)cnc23)CC1 [I-N-146, 2-amino-N-(4-(4-(N,N-dimethylsulfamoyl)piperidin-1-yl)-5-fluoropyridin-3-yl)-6-fluoropyrazolo[1,5-a]pyrimidine-3-carboxamide] | +++ (Compounds with a Cisplatin sensitization value of <0.02 μM are marked with “+++.”)
23 | Nc1nn2cc(F)cnc2c1C(=O)Nc1cncc(F)c1N1CCC(C(=O)N2CC3CCC(C2)N3)CC1 [I-G-44, N-(4-(4-(3,8-diazabicyclo[3.2.1]octane-3-carbonyl)piperidin-1-yl)-5-fluoropyridin-3-yl)-2-amino-6-fluoropyrazolo[1,5-a]pyrimidine-3-carboxamide] | +++ (Compounds with a Cisplatin sensitization value of <0.02 μM are marked with “+++.”)
24 | CN1CCN(C(=O)C2CCCN(c3c(F)cncc3NC(=O)c3c(N)nn4cc(F)cnc34)C2)CC1 (stereo not drawn) [I-N-289, 2-amino-6-fluoro-N-(5-fluoro-4-(3-(4-methylpiperazine-1-carbonyl)piperidin-1-yl)pyridin-3-yl)pyrazolo[1,5-a]pyrimidine-3-carboxamide] | ++ (Compounds with a Cisplatin sensitization value >0.02 μM but <0.2 μM are marked with “++.”)
25 | Nc1nn2cc(Cl)cnc2c1C(=O)Nc1cnccc1OC1CN2CCC1CC2 (stereo not drawn) [I-O-62, 2-amino-6-chloro-N-(4-(quinuclidin-3-yloxy)pyridin-3-yl)pyrazolo[1,5-a]pyrimidine-3-carboxamide] | +++ (Compounds with a Cisplatin sensitization value of <0.02 μM are marked with “+++.”)
26 | CN1CCC(OC2CCN(c3ccncc3NC(=O)c3c(N)nn4cc(F)cnc34)CC2)CC1 [I-N-154, 2-amino-6-fluoro-N-(4-(4-((1-methylpiperidin-4-yl)oxy)piperidin-1-yl)pyridin-3-yl)pyrazolo[1,5-a]pyrimidine-3-carboxamide] | +++ (Compounds with a Cisplatin sensitization value of <0.02 μM are marked with “+++.”)
27 | CN1CCN(C(=O)C2(C)CCN(c3c(F)cncc3NC(=O)c3c(N)nn4cc(F)cnc34)CC2)CC1 [I-G-54, 2-amino-6-fluoro-N-(5-fluoro-4-(4-methyl-4-(4-methylpiperazine-1-carbonyl)piperidin-1-yl)pyridin-3-yl)pyrazolo[1,5-a]pyrimidine-3-carboxamide] | +++ (Compounds with a Cisplatin sensitization value of <0.02 μM are marked with “+++.”)
